Here are results for 1 compound from patent publication US20080071116A1, “Modulators of Lysophosphatidic Acid (Lpa) Signaling and the Use Thereof” (THE BOARD OF REGENTS OF THE UNIVERSITY OF TEXAS SYSTEM, priority 2004, published 2008).

One assay relates to AKT. Kind of assay: AKT phosphorylation immunoblot in prostate cancer cells. The format is cell-based, human. The note with it: PC-3 and DU145 cells. How it is done:
The cells were then lysed in SDA sample buffer or ice-cold X-100 lysis buffer (1% Triton X-100, 50 mM HEPES [pH7.4], 150 mM NaCl, 1.5 mM MgCl2, 1 mM EGTA, 10% glycerol, 100 mM NaF, 10 mM Na pyrophosphate, and 1 mM aprotinin). Total cellular protein was resolved by SDS/PAGE, transferred to immobilon [poly (vinylidene difluoride)], and immunoblotted with antibodies following the protocols provided by manufactures. Immunocomplexes were visualized with an enhanced chemiluminescence detection kit (Amersham Pharmacia) using horseradish peroxidase-conjugated secondary antibodies (Bio-Rad).

The subject of assay [1] is chimera receptor, LPA1/LPA2. Kind of assay: calcium mobilization in Sf9 cells expressing LPA1/LPA2 chimera receptor. Conditions: FIG. 58C. It counts as cell-based. Background: Calcium flux is commonly read through the fluorescence of an indicator in the cells.
In the next assay the target is LPA1 receptor (Homo sapiens, UniProt Q92633). Kind of assay: HA-Erk1 phosphorylation in HEK 293 T cells transfected with LPA1. It counts as cell-based. More on the design: FLAG; expressed in transfected cells; host or cells: HEK 293 T cells. Conditions: LPA1 transfected HEK 293 T; 0.01, 0.1, or 1 μM. An excerpt: We have also tested kinase activation by the LPA3 receptor subtype using OMPT as a tool. We determined whether activation of the LPA3 receptor by OMPT can be linked to ERK activation (related to MAP kinase signaling pathway) in mammalian cells, HEK 293 T cells, by co-transfecting hemagglutinin (HA)-tagged Erk1 (HA-Erk1) with either a control vector or an expression vector having LPA1, LPA2, or LPA3. […] There is no phosphorylation of HA-Erk1 at lower concentration of LPA or OMPT in the absence of LPA receptors. […] Thus, the data confirmed that OMPT, an LPA derivative, is a selective agonist for LPA3 receptor subtype, capable of inducing MAPK activation.

Assay [2] relates to PC-3 cells. Put plainly: calcium mobilization assay in androgen insensitive prostate cancer PC-3 cells. The note with it: Homo sapiens. The format is cell-based, human. As to the method: (§1) The procedures for these calcium mobilization assays are as followed: OVCAR3 cells and PC-3 cells were cultured in RPMI 1640 medium with 10% FBS (fetal bovine serum). HT29 cells were cultured in DMEM (high glucose) medium with 10% FBS. All cells were cultured at about 37° C. in a humidified atmosphere with 5% CO2. After starvation in serum-free medium for about 12-24 hours, cells were harvested and loaded with about 1 μM of Indo-1 AM in serum-free medium for about 45 min at 37° C. Cells were washed in PBS and resuspended at 2×10^6 cells/ml in a [Ca^2+]i assay buffer (Sodium chloride, NaCl, about 140 mM, potassium chloride, KCl, about 2 mM, magnesium chloride, MgCl2, about 1 mM, calcium chloride, CaCl2, about 2 mM, in about 25 mM HEPES buffer at pH 7.4 with about 10 mM of glucose). Cytoplasmic [Ca^2+]i was determined at an excitation wavelength of about 331 nm and an emission wavelength of 410 nm using a fluorescence spectrophotometer (Hitachi, F-4000). Approximately 3×10^6 cells were used for [Ca^2+]l determination in a stirred quartz cuvette kept at about 37° C. OMPT or 18:1 LPA was dissolved in about 0.1% BSA/PBS solution and applied immediately to the cells. To test other LPA derivatives of the invention, cells were exposed to the derivatives for about 3 minutes or for a period of various times in time course related experiments before a LPA agonist, such as 18:1 LPA, OMPT, or other LPAs was applied into the cuvette.
(§2) The concentration of calcium mobilization giving the half-maximal response (EC50) was obtained from the concentration-response curve fitted to a sigmoidal logistic equation, with the maximal calcium response set to 100% using the GraphPad Prism. Maximal response value is expressed as mean +/−s.e.m. EC50 value is expressed with 95% confidence.

Another assay concerns HT29 cells. Put plainly: calcium mobilization assay in colon cancer HT29 cells. The format is cell-based. Conditions: HT29 cells. How it is done:
as §1, §2

Assay [3] concerns the target T1, LPA2 receptor (Homo sapiens, UniProt Q9HBW0). Put plainly: GTP[γ-35S] binding assay, HEK293 T membranes, LPA2. Set-up: expressed in transfected cells; host or cells: HEK293 T cells (crude microsomal membranes). Conditions: HEK293 transfected with LPA2, FIG. 59B. It counts as biochemical. As to the method:
(§3) OMPT also enhances GTP [γ-^35S] binding in the cell membrane of HEK293 T cells expressing LPA3. The procedures for these GTP [γ-^35S] binding assays involve co-transfection of HEK293 T cells with expression vectors encoding one of the receptors for LPA (LPA1, LPA2, or LPA3) or S1P (S1P3/Edg3) by calcium phosphate precipitation, together with plasmids encoding three G proteins (rat Gi2α, cow β1, and cow γ2). After about 48 hours, cells were harvested and crude microsomal membranes were prepared. Membranes containing about 5 μg of protein were incubated in 0.1 ml of GTP-binding buffer (50 mM Hepes, 100 mM NaCl, 10 mM MgCl2, pH7.5) having 5 μg of saponin, 0.1% fatty acid-free BSA, 10 μM GDP, 0.1 nM GTP[γ-^35S] (1200 Ci/mmole) together with indicated concentrations of LPA or OMPT for about 30 min at 30° C. Membranes were collected using a 96-well Brandel Cell Harvester (Gaithersburg, Md.), and bound radionuclide was determined using a Packard TopCount liquid scintillation counter.
On the technique in general: Binding of GTPγS marks nucleotide exchange on a G protein.

A further assay concerns the target T2, S1P3 receptor (Homo sapiens, UniProt Q99500).
T2 construct: expressed in transfected cells; host or cells: HEK293 T cells (crude microsomal membranes)
Put plainly: GTP[γ-35S] binding assay, HEK293 T membranes, S1P3 control. It counts as biochemical. Conditions: cells transfected with S1P3, negative control, FIG. 59D. As to the method:
as §3

The subject of assay [4] is PC-3 cells. Kind of assay: cellular proliferation and growth factor withdrawal-induced apoptosis. The format is cell-based, human.
In a further assay the test system is PKA. Put plainly: PKA activation in PC-3 cells. The format is cell-based, human.
For assay [5], the system named is PC-3 cells. Put plainly: membrane ruffling and cell migration in PC-3 cells. It counts as cell-based, human.
The target of a further assay is T3, LPA3 receptor (Homo sapiens, UniProt Q9UBY5).
T3 construct: expressed in transfected cells; host or cells: HEK293 T cells (crude microsomal membranes)
Put plainly: GTP[γ-35S] binding assay, HEK293 T membranes, LPA3. It counts as biochemical. Conditions: HEK293 transfected with LPA3, FIG. 59C. How it is done: as §3

Assay [6] addresses T1, LPA2 receptor. Kind of assay: calcium mobilization in Sf9 insect cells expressing LPA2. It counts as cell-based. More on the design: expressed in transfected cells; host or cells: Sf9 insect cells.
Another assay deals with OVCAR3 cells. Kind of assay: calcium mobilization assay in ovarian cancer OVCAR3 cells. It counts as cell-based, human. The note with it: Homo sapiens, OVCAR-3; OVCAR3 cells; 95% confidence about 7.0 to about 11.5 nM. As to the method:
as §1, §2

T1 sequence (Q9HBW0 whole entry): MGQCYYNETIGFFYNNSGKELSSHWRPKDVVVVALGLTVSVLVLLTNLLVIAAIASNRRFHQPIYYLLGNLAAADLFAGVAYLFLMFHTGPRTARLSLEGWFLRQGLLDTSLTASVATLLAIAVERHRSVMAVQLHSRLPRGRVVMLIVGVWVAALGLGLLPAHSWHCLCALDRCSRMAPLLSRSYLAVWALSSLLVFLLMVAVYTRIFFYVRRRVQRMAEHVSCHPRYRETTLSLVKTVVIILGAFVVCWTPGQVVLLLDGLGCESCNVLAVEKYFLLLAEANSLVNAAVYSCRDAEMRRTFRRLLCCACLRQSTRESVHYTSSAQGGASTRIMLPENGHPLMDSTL
LPA1 receptor, sequence (Q92633 whole entry): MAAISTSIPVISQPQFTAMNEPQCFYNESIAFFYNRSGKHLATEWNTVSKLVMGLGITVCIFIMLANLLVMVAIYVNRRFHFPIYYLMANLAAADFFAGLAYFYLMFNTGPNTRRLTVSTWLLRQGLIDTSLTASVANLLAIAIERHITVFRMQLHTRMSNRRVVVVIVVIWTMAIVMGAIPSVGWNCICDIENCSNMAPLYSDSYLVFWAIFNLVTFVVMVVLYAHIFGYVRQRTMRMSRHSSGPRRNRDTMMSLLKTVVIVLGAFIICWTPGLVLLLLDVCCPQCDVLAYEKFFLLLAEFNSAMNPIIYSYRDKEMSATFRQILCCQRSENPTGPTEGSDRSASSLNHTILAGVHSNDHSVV
T2 sequence (Q99500 whole entry): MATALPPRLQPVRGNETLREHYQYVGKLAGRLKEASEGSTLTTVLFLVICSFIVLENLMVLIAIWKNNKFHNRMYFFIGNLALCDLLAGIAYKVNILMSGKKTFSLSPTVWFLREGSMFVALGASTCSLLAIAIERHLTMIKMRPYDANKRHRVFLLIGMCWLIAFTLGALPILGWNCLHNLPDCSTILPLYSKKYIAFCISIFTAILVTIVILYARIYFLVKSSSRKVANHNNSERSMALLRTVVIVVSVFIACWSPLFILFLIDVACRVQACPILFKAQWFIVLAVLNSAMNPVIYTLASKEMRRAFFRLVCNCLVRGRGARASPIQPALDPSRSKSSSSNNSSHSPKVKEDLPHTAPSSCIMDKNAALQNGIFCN
T3 sequence (Q9UBY5 whole entry): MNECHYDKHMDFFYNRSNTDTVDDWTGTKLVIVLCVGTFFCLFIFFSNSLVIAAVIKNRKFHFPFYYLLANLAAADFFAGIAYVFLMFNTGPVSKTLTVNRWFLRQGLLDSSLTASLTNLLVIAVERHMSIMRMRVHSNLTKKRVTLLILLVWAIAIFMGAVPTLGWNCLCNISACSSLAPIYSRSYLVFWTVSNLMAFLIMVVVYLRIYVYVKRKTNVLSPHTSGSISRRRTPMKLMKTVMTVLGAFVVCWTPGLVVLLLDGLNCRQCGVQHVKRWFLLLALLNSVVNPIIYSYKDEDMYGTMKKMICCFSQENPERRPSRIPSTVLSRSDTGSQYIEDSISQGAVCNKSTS
T3 sequence (P04897 2-355 partner limits assumed): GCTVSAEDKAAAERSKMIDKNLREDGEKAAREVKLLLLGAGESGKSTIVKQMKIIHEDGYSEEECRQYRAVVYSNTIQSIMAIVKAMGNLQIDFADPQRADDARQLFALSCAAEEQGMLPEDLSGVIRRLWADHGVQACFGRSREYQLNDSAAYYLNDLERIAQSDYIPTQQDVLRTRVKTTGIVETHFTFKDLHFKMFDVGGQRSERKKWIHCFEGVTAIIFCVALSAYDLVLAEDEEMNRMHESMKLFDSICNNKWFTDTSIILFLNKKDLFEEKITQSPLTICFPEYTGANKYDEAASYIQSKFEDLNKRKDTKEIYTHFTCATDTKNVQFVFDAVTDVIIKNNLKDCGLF
T3 sequence (P62871 2-340 partner limits assumed): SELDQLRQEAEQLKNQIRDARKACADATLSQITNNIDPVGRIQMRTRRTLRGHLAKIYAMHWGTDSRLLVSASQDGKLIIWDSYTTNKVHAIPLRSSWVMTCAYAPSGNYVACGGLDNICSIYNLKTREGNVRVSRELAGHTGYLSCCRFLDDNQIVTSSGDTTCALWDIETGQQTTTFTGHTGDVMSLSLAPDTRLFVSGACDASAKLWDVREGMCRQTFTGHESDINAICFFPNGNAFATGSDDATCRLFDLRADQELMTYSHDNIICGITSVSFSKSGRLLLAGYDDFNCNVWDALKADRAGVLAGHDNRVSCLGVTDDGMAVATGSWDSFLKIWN
T3 sequence (P63212 2-68 partner limits assumed): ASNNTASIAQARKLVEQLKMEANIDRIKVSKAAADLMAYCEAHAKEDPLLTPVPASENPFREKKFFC

`CCCCCCCC/C=C\CCCCCCCC(=O)OCC(COP(O)(O)=S)OC` (racemic) [OMPT, 1-oleoyl-sn2-O-methyl-rac-glycero-3-phosphothionate]: the “activation of AKT” value with AKT is recorded as “efficiently activates”. Further, the calcium mobilization entry was “did not induce calcium mobilization” in assay [1] and “did not induce calcium mobilization” on LPA2 receptor [6] (Sf9 cells expressing LPA2, FIG. 58B). Further, the HA-Erk1 phosphorylation result at LPA1 receptor is recorded as “did not increase HA-Erk1 phosphorylation”. Besides, the EC50 is approximately 117 nM in the assay with PC-3 cells [2]; less than 1000 nM in the assay with HT29 cells (Homo sapiens, HT-29); more than 10 µM on LPA2 receptor [6] (Sf9 cells expressing LPA2, read-out: EC50 of increase in intracellular calcium concentration); approximately 9 nM with OVCAR3 cells. Besides, the “stimulation of calcium mobilization” value in the assay with HT29 cells (FIG. 3) is given as “but not OMPT, stimulates calcium mobilization”. The entries for the “activation in GTP[γ-35S] binding assay” value at LPA2 receptor [3], on S1P3 receptor and on LPA3 receptor were “does not activate”, “does not activate” and “activates”, respectively. In addition, the “cellular proliferation and prevention of growth factor withdrawal-induced apoptosis” value in the assay on PC-3 cells [4] was “increase cellular proliferation and prevent growth factor withdrawal-induced apoptosis”. The “activation of PKA” value with PKA is “does not”. Moreover, the “stimulation of membrane ruffling and cell migration” value in the assay with PC-3 cells [5] was “induces neither morphology changes nor migration”.
